Where a SMILES comes first, the peptide text is derived from it. The star is where a group is joined. hSer(lactone) = O=C1OCC[C@@H]1N*
Columns and labels:
PTH receptor = target: T1, PTH receptor (Rattus norvegicus, UniProt P25961); test: PTH analog activity assay: stimulation of adenylate cyclase (cAMP by SPA) in UMR106 cells
T1 sequence (P25961 27-591): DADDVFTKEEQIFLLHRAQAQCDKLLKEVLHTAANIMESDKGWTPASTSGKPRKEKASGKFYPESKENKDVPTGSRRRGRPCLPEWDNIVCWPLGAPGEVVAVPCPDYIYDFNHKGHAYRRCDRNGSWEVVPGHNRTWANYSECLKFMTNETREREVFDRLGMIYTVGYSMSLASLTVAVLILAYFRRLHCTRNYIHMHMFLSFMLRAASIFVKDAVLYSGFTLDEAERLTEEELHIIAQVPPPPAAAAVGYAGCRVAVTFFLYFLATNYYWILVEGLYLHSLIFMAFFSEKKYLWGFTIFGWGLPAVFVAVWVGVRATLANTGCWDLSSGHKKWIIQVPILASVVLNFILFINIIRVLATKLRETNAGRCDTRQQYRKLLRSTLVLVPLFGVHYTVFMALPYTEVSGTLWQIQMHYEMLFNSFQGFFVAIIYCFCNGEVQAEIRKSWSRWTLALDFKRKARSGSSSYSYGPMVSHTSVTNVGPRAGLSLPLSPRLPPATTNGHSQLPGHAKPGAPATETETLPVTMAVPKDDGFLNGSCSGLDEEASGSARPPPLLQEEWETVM
Description: PTH concentrations were determined by OD280 using an extinction coefficient of 6600 for the recombinant peptide and 5500 for the synthetic peptide. The rat osteosarcoma cell line UMR106 (ATCC CRL 1661) was used for in vitro testing of the peptide's ability to activate the PTH receptor. Activation of the PTH receptor leads to an intracellular rise in cAMP concentration.
The UMR106 cells were seeded at about 2.5×10^5 per well in a 48 well dish and allowed to grow to confluence. Assays were performed on cells 3-5 days postconfluence. The media (Dulbecco's modified Eagle's medium, DMEM, with fetal calf serum) was removed, and 1 mL of fresh media was applied. PTH (recombinant or synthetic) at various concentrations and 3-isobutyl-l-methyl xanthine (IBMX) at 1 mM final concentration were then added to each well of the plate, which was then incubated for 5 minutes at room temperature. The media was then removed and the cells quickly washed with ice cold PBS. The cells were then extracted twice with 1 mL of absolute ethanol. The two extractions were combined and the ethanol removed by evaporation. The extract was then redissolved in 1 mL of scintillation proximity buffer (SPA buffer) (Amersham, Arlington Heights, Ill.). The cAMP concentration was determined by assay using a scintillation proximity assay (SPA) kit available from Amersham.

[1] = In vitro electrotransport flux of the PTH analogs; assay type: in vitro ADME, human; settings: retro-inverso versions, 1 mM donor pH 5.0, 100 μA cm^-2, 32° C.
Description: In vitro electrotransport studies were carried out in multi-compartment, custom-built, small volume cells using anodic drive. 1 mM PTH in 10 mM buffer was placed in the donor compartment and 25 mM final ionic strength receptor was placed in the receptor compartment. The receptor solution was 15 mM NaCl buffered to pH 7 with 10 mM imidazole, 0.1% bovine serum albumin (BSA) as a blocking agent, Tween 20 detergent and sodium azide as a bactericide.
Heat-stripped human cadaver stratum corneum was placed between the donor and receptor compartments with the epidermis side toward the receptor compartment. A constant DC current of […] (ie,0.1 mA/cm^2) was applied. Cells were maintained at 32° C. during the in vitro studies with receptor samples taken every 2 hours (receptor volume removed and replaced with "fresh" receptor at each sampling). Receptor samples were analyzed by reversed-phase HPLC.
Peak areas of PTH receptor samples were compared to standard curves of the same analog of known concentrations run at the same time using an analytical polymeric column, at a flow rate of 1.5 mL/min with a gradient from 10-50% B in ten minutes for elution. Buffer A was 0.1% trifluroacetic acid (TFA), 1% acetonitrile; Buffer B was 0.1% TFA, 98.9% acetonitrile. Analog concentrations were converted to mass flux and plotted vs. time.
For the in vitro electrotransport studies, described donors contained the retro-inverso versions (ie, D-amino acid residues were used and were assembled in reverse order than usual) of the PTH analogs (1 mM) in aqueous solutions at pH 5.0. This was because PTH analogs 1 and 2 were not stable when incubated with stripped stratum corneum, probably due to proteolytic digestion by skin proteases. The fully assembled electrotransport cells were incubated at 32±0.5° C. The skin contact area available for transport was 1.27 cm^2. The donor compartment volume was 200 μL; the receptor compartment volume was 350 μL. The receptor solution was separated from the cathode by an anion exchange membrane (Ionac™, Eletrosynthesis Co., Lancaster, N.Y.). Each cell was connected to a constant current source at a standard current density of 100 μA cm^-2. The voltage drop across each cell was monitored at approximately 2-hour intervals for the duration of the experiment.

[2] = Stability on incubation with stripped stratum corneum; assay type: in vitro ADME, human

| SMILES | EC50 (PTH receptor) [nM] | Average mass flux [1] [μg cm^-2 h^-1] | median mass flux [1] [μg cm^-2 h^-1] | stability when incubated with stripped stratum corneum [2] |
| --- | --- | --- | --- | --- |
| CC[C@H](C)[C@H](NC(=O)[C@H](CCC(=O)O)NC(=O)[C@H](CO)NC(=O)[C@@H](NC(=O)[C@@H](N)CO)C(C)C)C(=O)N[C@@H](CCC(N)=O)C(=O)N[C@@H](CC(C)C)C(=O)N[C@@H](CC(C)C)C(=O)N[C@@H](Cc1c[nH]cn1)C(=O)N[C@@H](CC(N)=O)C(=O)N[C@@H](CC(C)C)C(=O)NCC(=O)N[C@@H](CCCCN)C(=O)N[C@@H](Cc1c[nH]cn1)C(=O)N[C@@H](CCCNC(=N)N)C(=O)N[C@@H](CC(N)=O)C(=O)N[C@@H](CO)C(=O)N[C@@H](CC(C)C)C(=O)N[C@@H](CCCNC(=N)N)C(=O)N[C@@H](CCCNC(=N)N)C(=O)N[C@H](C(=O)N[C@@H](CCCNC(=N)N)C(=O)N[C@@H](Cc1c[nH]c2ccccc12)C(=O)N[C@@H](CC(C)C)C(=O)N[C@@H](CCCNC(=N)N)C(=O)N[C@@H](CCCCN)C(=O)N[C@@H](CCCCN)C(=O)N[C@@H](CC(C)C)C(=O)N[C@@H](CCCCN)C(=O)N[C@@H](CC(=O)O)C(=O)N[C@H](C(=O)N[C@@H](Cc1c[nH]cn1)C(=O)N[C@@H](CC(N)=O)C(=O)N[C@@H](Cc1ccc(O)cc1)C(=O)N[C@H]1CCOC1=O)C(C)C)C(C)C [PTH analog 1] (H-SVSEIQLLHNLGKHRNSLRRVRWLRKKLKDVHNY-{hSer(lactone)}) | 0.9 | 1.4 | 0.3 | not stable |
| CC[C@H](C)[C@H](NC(=O)[C@H](CCC(=O)O)NC(=O)[C@H](CO)NC(=O)[C@@H](NC(=O)[C@@H](N)CO)C(C)C)C(=O)N[C@@H](CCC(N)=O)C(=O)N[C@@H](CC(C)C)C(=O)N[C@@H](CC(C)C)C(=O)N[C@@H](Cc1c[nH]cn1)C(=O)N[C@@H](CC(N)=O)C(=O)N[C@@H](CO)C(=O)NCC(=O)N[C@@H](CCCCN)C(=O)N[C@@H](Cc1c[nH]cn1)C(=O)N[C@@H](CCCNC(=N)N)C(=O)N[C@@H](CC(N)=O)C(=O)N[C@@H](CO)C(=O)N[C@@H](CO)C(=O)N[C@@H](CCCNC(=N)N)C(=O)N[C@@H](CCCNC(=N)N)C(=O)N[C@@H](CO)C(=O)N[C@@H](CCCNC(=N)N)C(=O)N[C@@H](Cc1c[nH]c2ccccc12)C(=O)N[C@@H](CO)C(=O)N[C@@H](CCCNC(=N)N)C(=O)N[C@@H](CCCCN)C(=O)N[C@@H](CCCCN)C(=O)N[C@@H](CO)C(=O)N[C@@H](CCCCN)C(=O)N[C@@H](CC(=O)O)C(=O)N[C@H](C(=O)N[C@@H](Cc1c[nH]cn1)C(=O)N[C@@H](CC(N)=O)C(=O)N[C@@H](CO)C(=O)N[C@H]1CCOC1=O)C(C)C [PTH analog 2] (H-SVSEIQLLHNSGKHRNSSRRSRWSRKKSKDVHNS-{hSer(lactone)}) | – | 4.1 | 3.2 | not stable |

From patent US6313092A, “Method for increasing the electrotransport flux of polypeptides” (ALZA Corporation, priority 1998, dated 2001)
